Test results published in patent US12227479B2, “Dihydropyridines for the treatment of cognitive impairment or traumatic brain injury” (Icahn School of Medicine at Mount Sinai, priority 2017, dated 2025).
Where “and” joins values, the source holds several entries; their conditions need not be identical. Equal values may be shown once. Entries after “also recorded” stand apart in the source; their conditions may differ. Read-outs that look alike come from different tables or passages of the source. One block for each molecule: values may come before it.

Key:
[1] = Brain and blood exposure after PO administration to male CD-1 mice; type: in vivo, mouse; settings: for concentration at 1 h / concentration at 3 h / Kp at 1 h / Kp at 3 h: mouse, PO 30 mg/kg, male CD-1 mice; for Kp at 1 h / Kp at 3 h: brain/blood, read-out: Brain/Blood ratio
in vivo = settings: male, CD-1, mouse
synj1 [2] = assay: Long-term daily IP treatment of AD transgenic mice: cortical brain synj1 levels; type: in vivo; settings: APP/PS1 transgenic mouse, 2.5 mg/kg/day IP for 6 months, compared to Tg vehicle controls
Experimental: (§1) Data is presented as % of wt control (vehicle-treated) time spent exploring novel objects. N=13-15/group. C) Cortical brain synj1 levels as well as D) PIP2 levels in Tg mice (vehicle-, nimodipine- or Example 9-treated) were compared to vehicle-treated controls (as 100%) in wildtype (wt) mice. N=7-13/group. One-way ANOVA was performed followed by post-hoc multiple comparison tests to determine the significance of differences between pairs of means. *p<0.05, **p<0.01, ***p<0.001, ****p<0.0001.

Aβ40 [3] = assay: Long-term daily IP treatment of AD transgenic mice: brain Aβ40 levels; type: in vivo, mouse; settings: 2.5 mg/kg/day IP for 6 months
Experimental: (§2) N=5-7/group. […] One-way ANOVA was performed followed by post-hoc multiple comparison tests to determine the significance of differences between drug-treated vs DMSO control. *p<0.05, **p<0.01.

Aβ40 [4] = assay: ELISA of Aβ40 levels in wt cortical neuronal culture; type: cell-based; settings: wt cortical neurons
Experimental: (§3) DMSO-treated conditions were used as controls and results were presented as percentage of the control (±SEM). […] FIGS. 3A, B and C). […] FIGS. 3A, B and C). […] D) In vitro calcium channel inhibition assays. Results were presented as percentage of inhibition (±SEM). […] One-way ANOVA was performed followed by post-hoc multiple comparison tests to determine the significance of differences between drug-treated vs DMSO control. *p<0.05, **p<0.01, ***p<0.001; N=3/condition except in A) nimodipine-treated conditions with N=20.

synj1 [5] = assay: Western blot of synj1 protein levels in wt cortical neurons; type: cell-based
Experimental: as §3, with “Results were determined by measuring the synj1 protein levels as a percentage of the control (±SEM). One-way ANOVA was performed followed by post-hoc multiple comparison tests to determine the significance of differences between drug-treated vs DMSO control. **p<0.01; N=4-17/condition. […] DMSO-treated” for “DMSO-treated”

synj1 5′-promoter region = assay: synj1 5′-promoter luciferase assay (GLuc/SEAP dual reporter) in ApoE4 cortical neurons; type: cell-based; settings: for inhibition of synj1 transcription activities: luciferase assay; for IC50: Cortical neurone, ApoE4 cortical neurons, 48 hours treatment, read-out: IC50 (synj1 transcriptional activity, luciferase assay)
Experimental: The in vitro luciferase assay uses a dual reporter system of Gaussia luciferase (GLuc) and secreted alkaline phosphatase (SEAP) tagged synj1 5′-promoter region. […] (FIG. 2). DMSO-treated conditions were used as controls and results were presented as percentage of the control (±SEM). One-way ANOVA was performed followed by post-hoc multiple comparison tests to determine the significance of differences between drug-treated vs DMSO control. *p<0.05; N=5-17/condition.

Aβ42 [6] = assay: ELISA of Aβ42 levels in wt cortical neuronal culture; type: cell-based; settings: 10 μM, wt cortical neurons
Experimental: as §3

wt cortical neurons = assay: Observed toxicity in wt cortical neuron cultures; type: cell-based; settings: 10 μM
[7] = Blood pharmacokinetics after IV or PO administration to male CD-1 mice
Aβ40 [8] = assay: Long-term daily oral treatment of ApoE KI mice: brain Aβ40 levels; type: in vivo, mouse; settings: 3 mg/kg/day oral
Experimental: (§4) FIG. 8 Long-term in vivo treatment of Example 9 via daily oral administration at 3 mg/kg/day in ApoE KI mice. […] N=5-8/group. Vehicle-treated conditions were used as controls and results were presented as percentage of the control (±SEM). One-way ANOVA was performed followed by post-hoc multiple comparison tests to determine the significance of differences between drug-treated vs DMSO control. *p<0.05, ***p<0.001.

APP/PS1 transgenic mouse = assay: Long-term daily IP treatment of AD transgenic mice: NOR and Y maze behavior tests; type: in vivo; settings: 2.5 mg/kg/day IP for 6 months, vs vehicle Tg mice
Experimental: as §1

Aβ42 [9] = assay: Long-term daily oral treatment of ApoE KI mice: brain Aβ42 levels; type: in vivo, mouse; settings: 3 mg/kg/day oral
Experimental: as §4

ApoE4 mice = assay: Long-term daily oral treatment of ApoE KI mice: NOR test; type: in vivo, mouse; settings: 3 mg/kg/day oral for 6 months, vs vehicle-treated ApoE4 mice
Experimental: FIG. 7 Long-term in vivo treatment of Example 9 via daily oral administration at 3 mg/kg/day in ApoE KI mice. […] Data is presented as a percentage of ApoE3 control (vehicle-treated) time spent exploring novel objects. N=12-13/group. Cortical brain B) synj1 levels as well as C) pTau levels in ApoE4 mice (vehicle- or Example 9-treated) were compared to vehicle-treated controls (as 100%) in ApoE3 mice. N=6-9/group. One-way ANOVA was performed followed by post-hoc multiple comparison tests to determine the significance of differences between pairs of means. *p<0.05, **p<0.01.

[10] = test system: Ca2+- L type calcium channel (dihydropyridine site); assay: Calcium channel activity, Cerep radioligand displacement (dihydropyridine site, antagonist); type: binding
Experimental: as §3, with “[table] […] DMSO-treated” for “DMSO-treated”

Aβ42 [11] = assay: Long-term daily IP treatment of AD transgenic mice: brain Aβ42 levels; type: in vivo, mouse; settings: 2.5 mg/kg/day IP for 6 months
Experimental: as §2

[12] = APP/PS1 transgenic mouse neocortex, vs Tg vehicle
[13] = male, CD-1, mouse, blood, iv, 1 mg/kg
[14] = male, CD-1, mouse, blood, po, 30 mg/kg

concentration at 1 h ([1]; blood, read-out: Blood conc.): 70 ng/mL | concentration at 3 h ([1]; blood, read-out: Blood conc.): 62 ng/mL | Kp at 1 h [1]: 1.9 | Kp at 3 h [1]: 1 | concentration at 1 h ([1]; brain, read-out: Brain conc.): 136 ng/mL | concentration at 3 h ([1]; brain, read-out: Brain conc.): 62 ng/mL | bioavailability (in vivo): 7% | AUC (in vivo; iv, 1 mg/kg): 187 ng·h/mL | Cmax (in vivo; iv, 1 mg/kg): 341 ng/mL | Vd (in vivo; iv, 1 mg/kg): 3.29 L/kg | clearance (in vivo; iv, 1 mg/kg): 88.8 mL/min/kg | half-life (in vivo; iv, 1 mg/kg): 0.58 h | AUC (in vivo; po, 30 mg/kg): 384 ng·h/mL | Cmax (in vivo; po, 30 mg/kg): 114 ng/mL | half-life (in vivo; po, 30 mg/kg): 7.27 h | IC50 (synj1 5′-promoter region): 3.99 µM
Compound: COCCOC(=O)C1=C(C)NC(C)=C(C(=O)OC(C)C)C1c1cccc([N+](=O)[O-])c1 (racemic) [nimodipine]
reduction of synj1 protein levels in brain neocortical regions (synj1 [2]): 75.8% | decrease in soluble Aβ40 levels (Aβ40 [3]; [12]): 24.7% | reduction of Aβ40 levels (Aβ40 [4]; 10 μM): 47.0% | reduction of Aβ40 levels (Aβ40 [4]; 10 μM, listed as Nimodipine): synj1 protein levels, a 47% reduction of Aβ40 levels and a | reduction of synj1 protein levels (synj1 [5]; 10 μM): 26.6% | inhibition of synj1 transcription activities (synj1 5′-promoter region; 10 μM): Nimodipine at 10 μM achieved a 43.0% inhibition of synj1 | reduction of Aβ42 levels (Aβ42 [6]): 12.1% | reduction of Aβ42 levels (Aβ42 [6]; listed as Nimodipine): 12.1% reduction of Aβ42 levels. Example 9 at 5 μM exhibited a

Compound: COCCOC(=O)C1=C(C)NC(C)=C(C(=O)OC(C)C)C1c1ccc(OC(F)(F)F)cc1 (centres unmarked) [Example 7]
toxicity in cortical neuron culture (wt cortical neurons): observed toxicities

CNS penetrability (in words) ([1]; compared with nimodipine): better than nimodipine | concentration at 1 h ([1]; blood, read-out: Blood conc.): 518 ng/mL | concentration at 3 h ([1]; blood, read-out: Blood conc.): 607 ng/mL | Kp at 1 h [1]: 1.2 | Kp at 3 h [1]: 0.7 | concentration at 1 h ([1]; brain, read-out: Brain conc.): 604 ng/mL | concentration at 3 h ([1]; brain, read-out: Brain conc.): 421 ng/mL | oral bioavailability (in words) ([7]; compared with nimodipine): better than nimodipine | AUC [7, 13]: 189 ng·h/mL | Cmax [7, 13]: 228 ng/mL | Vd [7, 13]: 8.2 L/kg | clearance [7, 13]: 85 mL/min/kg | half-life [7, 13]: 1.68 h | bioavailability ([7]; male, CD-1, mouse, blood, oral, 30 mg/kg): 73% | AUC [7, 14]: 4120 ng·h/mL | Cmax [7, 14]: 1010 ng/mL | half-life [7, 14]: 0.84 h | IC50 (synj1 5′-promoter region): 3.33 µM | calcium channel inhibition ([10]; 1 nM): no calcium channel | calcium channel inhibition ([10]; 0.1 μM): 81.3%
Compound: COCCOC(=O)C1=C(C)NC(C)=C(C(=O)OC(C)C)C1c1ccc(C(C)(C)C)cc1 (centres unmarked) [Example 9, 3-isopropyl 5-(2-methoxyethyl) 4-(4-(tert-butyl)phenyl)-2,6-dimethyl-1,4-dihydropyridine-3,5-dicarboxylate]
reduction of synj1 protein levels in brain neocortical regions (synj1 [2]): 99.4% | levels of insoluble Aβ40 in Tg animal brains (in words) (Aβ40 [3]; AD transgenic mice): Reduction | decrease in insoluble Aβ40 levels (Aβ40 [3]; [12]): 23.7% | decrease in soluble Aβ40 levels (Aβ40 [3]; [12]): 12% | levels of soluble Aβ40 in ApoE4 animal brains (in words) (Aβ40 [8]): reduction | cognitive function in NOR and Y-maze tests (in words) (APP/PS1 transgenic mouse): cognitive improvements | levels of insoluble Aβ42 in ApoE4 animal brains (in words) (Aβ42 [9]): trend of reduction | levels of soluble Aβ42 in ApoE4 animal brains (in words) (Aβ42 [9]): reduction | reduction of Aβ40 levels (Aβ40 [4]; 5 μM): 82.6% | reduction of synj1 protein levels (synj1 [5]; 5 μM): 62.4% and 62.3% | cognitive function in NOR test (in words) (ApoE4 mice): cognitive improvements | inhibition of synj1 transcription activities (synj1 5′-promoter region; 3 μM): 44.4% inhibition. | calcium channel inhibition compared to nimodipine (in words) ([10]; versus nimodipine): attenuated calcium channel blockade effects; also recorded: Example 9 has attenuated calcium channel inhibition versus | levels of insoluble Aβ42 in Tg animal brains (in words) (Aβ42 [11]; AD transgenic mice): trend of reduction | levels of soluble Aβ42 in Tg animal brains (in words) (Aβ42 [11]; AD transgenic mice): Reduction | decrease in insoluble Aβ42 levels (Aβ42 [11]; [12]): 27.4% | decrease in soluble Aβ42 levels (Aβ42 [11]; [12]): insoluble Aβ42 levels, a 19.3% decrease in soluble Aβ42 levels, | toxicity in cortical neuron culture (wt cortical neurons): observed toxicities

IC50 (synj1 5′-promoter region): 1.89 µM
Compound: COCCOC(=O)C1=C(C)NC(C)=C(C(=O)OC(C)C)C1c1ccc(C(F)(F)F)cc1 (centres unmarked) [Example 6, 3-isopropyl 5-(2-methoxyethyl) 2,6-dimethyl-4-(4-(trifluoromethyl)phenyl)-1,4-dihydropyridine-3,5-dicarboxylate]
toxicity in cortical neuron culture (wt cortical neurons): observed toxicities
